Assay results reported in paper PMC11857742, “Antiaging Potential of Lipophilic Extracts of Caulerpa prolifera” (Marine Drugs, 2025).

Target: T1, collagenase
T1 construct: gene colG; usual product is native clostridial collagenase
Experiment: FALGPA hydrolysis, ninhydrin detection at […] nm
Assay type: biochemical
Conditions: pH 7.4, 37 °C, TES, calcium chloride; chelates the metal cofactor

O=C(O)CN(CCN(CC(=O)O)CC(=O)O)CC(=O)O [EDTA]
Collagenase / IC50: 51.2 ± 0.12 µg/mL
